Assay results reported in patent US11235001B2, “RUNX inhibitor” (KYOTO UNIVERSITY, priority 2016, dated 2022).
Read-outs that look alike come from different tables or passages of the source.

How the values were obtained:
[1] = Acute toxicological testing in NOG mice; type: in vivo, mouse
Description: To check the pharmacological safety of the PI polyamide conjugates in vivo, acute toxicological testing of Chb-M′ in mice was first performed. NOD/Shi-scid,IL-2RγKO (NOG) mice were injected with Chb-M′ at various concentrations. Complete blood cell counts, blood biochemistry and body weight were measured (n=5).

LNCaP cells = details: read-out: IC50 (μM) in LNCaP cells; LNCaP (androgen-dependent), 48 hours
Kasumi-1 = details: Kasumi-1, p53mut(+); for IC50: 48 hours
[2] = system: c-kit (KIT D816V mutation and V560G mutation); assay: FACS of cell surface c-kit, HMC-1.2 mast cells; type: cell-based, human; details: HMC-1.2 (mutated c-kit), 10 μM, 18-hour treatment; DMSO 113
Excerpt: Mast cells cause symptoms or diseases such as allergic reaction by receptor-mediated activation. In addition, c-kit signal transduction enhances release of chemical mediators from stimulated mast cells. The effect of the RUNX inhibitor on human mast cells was examined. As human mast cells, a LAD2 cell line (expressing wild-type c-kit) and an HMC-1.2 cell line (expressing mutated c-kit) were used. The HMC-1.2 cell line has KIT D816V mutation and V560G mutation. Wild-type c-kit is a SCF receptor and the cell proliferation is dependent on SCF. Accordingly, regarding the LAD2 cell line, 50 ng/ml of SCF was administered and experiments were performed as described below. The HMC-1.2 cell line has a mutation in c-kit and the cell proliferation is independent of SCF. Accordingly, regarding the HMC-1.2 cell line, SCF was not administered and experiments were performed as described below. As the RUNX inhibitor, Chb-M′ was used. […]
To the LAD2 cell line, 10 μM Chb-M′ was administered. After 3 hours and 18 hours, different antibodies were used for immunostaining of c-kit expressed on the cell surface, and the expression levels were analyzed by FACS (fluorescence-activated cell sorter). […] After 18 hours, different antibodies were used for immunostaining of c-kit expressed on the cell surface, and the expression levels were analyzed by FACS. […]

[3] = system: c-kit, phospho-c-Kit, AKT, phosphorylated AKT, Mitf; assay: Western blot of KIT signalling, HMC-1.2 mast cells; type: cell-based, human; details: HMC-1.2, 10 μM, 18 hours
Description: Cells were washed twice with ice cold phosphate-buffered saline (PBS) and harvested in protein lysis buffer [50 mM Tris (pH 7.4), 100 mM NaCl, 0.1 mM EDTA, 1 mM phenylmethylsulfonyl fluoride, 1 mM β-glycerophosphate, 2.5 mM sodium pyrophosphate, 1 mM Na3VO4, lx protease inhibitor (Roche) and PhosSTOP (Roche)]. Whole cell extracts were separated by SDS-polyacrylamide gel electrophoresis (SDS-PAGE) and electrotransferred onto polyvinylidene difluoride membranes. […] Blots were detected using Chemi-Lumi One Super (nacalai tesque, Inc.) and ChemiDoc™ XRS+ Imager (Bio-Rad Laboratories, Inc.), as recommended by the manufacturers. Protein levels were quantified with Image Lab Software (Bio-Rad Laboratories, Inc.).
To the LAD2 cell line and the HMC-1.2 cell line, 10 μM Chb-M′ was administered. After culturing the cells for 18 hours, extracts were obtained from the cells, and the protein expression levels of c-kit, phospho-c-Kit, AKT, phosphorylated AKT, Mitf, and GAPDH were analyzed by the Western blot analysis (see the above-described “Immunoblotting”) using different antibodies. […]

SU/SR cells = details: read-out: IC50 value; SU/SR (imatinib-resistant), 48 hours

Q: Which “10 mg/kg dose relative to the amount necessary to gain medicinal effect” value [1] does the source give for `CN(C)CCCNC(=O)c1cc(NC(=O)c2cc(NC(=O)c3cc(NC(=O)c4cc(NC(=O)CCCNC(=O)c5nc(NC(=O)c6nc(NC(=O)c7cc(NC(=O)c8nc(NC(=O)CCNC(=O)CCCc9ccc(N(CCCl)CCCl)cc9)cn8C)cn7C)cn6C)cn5C)cn4C)cn3C)cn2C)cn1C` [Chb-M′] here?
A: more than thirty times higher

Q: And the Tolerability in vivo [1]?
A: highly tolerable

Q: What about the Platelets counts ([1]; 10 mg/kg body weight injection) of the same compound?
A: slight decrease

Q: And the IC50 (LNCaP cells)?
A: 0.68 µM

Q: And the “CI (Fa = 0.5)” value (Kasumi-1; concomitant use of Chb-M′ and PRIMA-1, Chou-Talalay, CI<1 synergism)?
A: 0.156

Q: What about the IC50 (Kasumi-1; read-out: IC50 (μM) of Chb-M′ in concomitant use with PRIMA-1 (5 μM), with 5 μM PRIMA-1) of the same compound?
A: 0.359 µM

Q: What about the IC50 (Kasumi-1; read-out: IC50 (μM) of Chb-M′ single agent administration) of the same compound?
A: > 100 µM

Q: What about the “MFI (mean fluorescent intensity) of surface c-kit” value [2] of the same compound?
A: 100

Q: And the “Expression levels of c-kit and phospho-c-Kit” value [3]?
A: suppressed

Q: And the “pAKT amount of protein” value [3]?
A: slight decrease

Q: What about the IC50 (SU/SR cells) of the same compound?
A: 44 nM
